From patent publication US20070225255A1, “Use of Mitochondrially Targeted Antioxidant in the Treatment of Liver Diseases and Epithelial Cancers” (priority 2004, published 2007)

How the values were obtained:
[1] = tested on: human cell lines intoxicated with DDC or BSO; test: ROS formation in cell lines intoxicated with DDC or BSO; assay type: cell-based; conditions: simultaneous treatment at concentrations corresponding to EC50
Excerpt: Another simple set of experiments employing hepatoma cell lines (e.g. HepG2 or Hep3B), the SNU-398 hepatocellular carcinoma-derived cell line (ATCC No. CRL-2233, LGC Promochem, Germany), the HUH-7 human carcinoma-derived cell line (Japanese collection of Research Biosources JCRB 0403) or the Tib-73 mouse embryonic liver cell line (ATCC TIB 73=BNL CL2 derived from BAL/c mouse, MD, USA) allows measurement of ROS production in these cells upon DDC intoxication.
To determine ROS production in for example hepatoma cell lines a standard experimental protocol according to Example 8 is applied. Tested hepatoma cells are grown in 96-well plates in culture medium (DMEM supplemented with 10% FCS, Gibco) to 80% confluency, subsequently washed with HBSS and incubated in the dark with DHE (10-50 μM) for 10 minutes at 37° C. Cells are then washed twice with Hank's balanced salt solution (HBSS, Gibco) to remove excess dye. Fluorescence is monitored in a fluorescence microscope (Olympus, Hamburg, Germany).
Alternatively, the generation of ROS is measured by using the fluoroprobe 5-(and-6)-chloromethyl-2′,7′-dichlorodihydrofluorescein diacetate acetyl ester (CM-H2DCFDA, Molecular Probes, Goettingen, Germany) which is converted to fluorescent dichlorofluorescien (DCF; Djordjevic T. et al., 2004, Antioxidants & Redox Signaling, 6: 713-720). To determine DCF fluorescence in a microplate reader (Tecan, Crailsheim, Germany), cells (e.g. HepG2, Hep3B or SNU-398) are grown in 96-well plates to 80% confluency. […] After several washes with HBSS to remove excess dye, fluorescence is monitored by using 480 nm excitation and 540 nm emission wavelength. DCF fluorescence is standardized to the number of viable cells using the Alamar Blue test according to the manufacturer's instructions (Biosource, Nivelles, Belgium). […] The absorbance is then measured at the wavelength of 580 μm.

[2] = tested on: DDC- or GF intoxicated mice; test: Toxic memory effect upon reintoxication with DDC or GF after recovery; assay type: in vivo, mouse; conditions: 10 weeks DDC or GF, 4 weeks recovery, reexposure 24 to 72 hours with simultaneous treatment
Excerpt: Mouse livers respond to DDC- or GF intoxication first with ballooning of hepatocytes and formation of a denser keratin IF network. After around 6 weeks of intoxication, ballooned hepatocytes show a reduced density of the keratin IF and early MBs can be observed as fine granules associated with the keratin IF network. Continuation of intoxication leads to the appearance of large MBs typically located in the perinuclear cytoplasmic region. […] Upon cessation of intoxication, MBs disappear within several weeks. At 4 weeks of recovery from intoxication, there are groups of hepatocytes devoid of cytoplasmic keratin filaments but still containing small remnants of MBs at the cell periphery in association with desmosomes. If such mice are reexposed to DDC or GF numerous MBs reappear within 24 to 72 hours (Stumptner C. et al., 2001, J. Hepatol., 34: 665-675). This enhanced formation of MBs upon reintoxication was interpreted—in analogy to allergic reactions—as a toxic memory effect.
In another set of experiments, 10 week-intoxication of mice with DDC or GF is followed by 4 weeks of recovery.

[3] = tested on: mitochondria within isolated cells; conditions: in vitro; cited from earlier work
[4] = intraperitoneal or i.v. (tail vein) injections, mice; cited from earlier work
[5] = fed to mice on a long term basis; cited from earlier work
[6] = according to Jauslin M. L. et al., 2003, FASEB J.; cited from earlier work
[7] = fed in drinking water for 3 to 7 days, 500 μM or 1 mM (MitoVit E 500 μM); cited from earlier work
[8] = tested on: choline deficient diet fed rats; conditions: cited from earlier work
[9] = tested on: patients having liver cirrhosis and a history of hepatitis C virus (HCV) infection; conditions: patients with liver cirrhosis and HCV history (VitE group); cited from earlier work
hepatoma cell lines = test: DDC intoxication of hepatoma cell lines; assay type: cell-based; conditions: hepatoma cell lines incubated for up to 72 hours in DMEM and 10% FCS
Method: The hepatoma cell lines incubated for up to 72 hours in culture medium (DMEM and 10% FCS, Gibco) supplemented with DDC (EC50=50 μg/ml of medium) or with up to 100 μM BSO are another suitable in vitro model mimicking observations made in patients suffering from the diseases according to the invention.

[10] = tested on: human epithelial cell cancer xenografts; test: Nude mice tumor xenografts; assay type: in vivo, mouse
Method: Tumor cell lines or primary tumors that are xenografted subcutaneously according to standard methods (Li K. et al., 2003, Cancer Res., 63(13): 3593-3597) include colon adenocarcinomas, invasive ductal carcinomas of the breast, small and non-small cell lung carcinoma, prostate tumors, pancreatic tumors and stomach tumors.
Tumor-derived cell lines (grown in DMEM/10% FBS) are harvested in log-phase growth, washed twice with PBS, resuspended in 1 ml PBS (2.5×10^7 cells/ml), and injected subcutaneously into the right flank of a nude mouse (Hsd: athymic nu/nu, Harlan Winkelmann; aged between 5 and 6 weeks) at 5×10^6 cells/mouse (0.2 ml). Tumor growth is monitored every other day for the indicated periods (depending on the cell type). Tumor size is determined by the product of two perpendicular diameters and the height above the skin surface.

## Cc1c(C)c2c(c(C)c1O)CCC(C)(CC[P+](c1ccccc1)(c1ccccc1)c1ccccc1)O2 (stereo not drawn) [MitoVit E, [2-(3,4-dihydro-6-hydroxy-2,5,7,8-tetramethyl-2H-1-benzopyran-2-yl)ethyl]-triphenylphosphonium bromide]
[1]
  ROS formation: significant reduction in ROS formation
[2]
  toxic memory effect (reappearance of MBs): reduced or abolished
[3]
  accumulation by mitochondria: rapidly and selectively accumulated by mitochondria
[4]
  maximum tolerated dose: 6 mg/kg/day
[5]
  concentrations within the brain, heart, liver, and muscle: potentially therapeutically effective concentrations
  safety of feeding: fed safely
[6]
  EC50: 416 nM
[7]
  gross signs of toxicity: without any gross signs of toxicity

## vitamin E
[8]
  development of fatty liver and oxidative stress: neither prevented the development of fatty liver nor reduced the oxidative stress

## C[P+](c1ccccc1)(c1ccccc1)c1ccccc1 [TPMP, reference compound]
[5]
  safety of feeding: fed safely

## Cc1c(C)c2c(c(C)c1O)CC[C@@](C)(CCC[C@H](C)CCC[C@H](C)CCCC(C)C)O2 [alpha-tocopherol]
[9]
  liver function, hepatocarcinogenesis, cumulative survival: neither improvement of liver function, suppression of hepatocarcinogenesis, nor improvement of cumulative survival

## CCOC(=O)C1=C(C)NC(C)=C(C(=O)OCC)C1C [DDC]
Hepatoma cell lines
  EC50: 50 μg/ml of medium

## COc1c(O)c(C)c(CCCCCCCCCC[P+](c2ccccc2)(c2ccccc2)c2ccccc2)c(O)c1OC.CS(=O)(=O)[O-] [MitoS]
[1]
  ROS formation: significant reduction in ROS formation
[2]
  toxic memory effect (reappearance of MBs): reduced or abolished
[10]
  growth of tumors: reduced growth of tumors
  necrosis of the tumors: increased necrosis of the tumors
  vascularization of the tumor xenografts: decreased vascularization
[7]
  gross signs of toxicity: without any gross signs of toxicity
